Data published in ChEMBL document CHEMBL1938271, “Dimeric ent-kaurane diterpenoids from Isodon excisus” (J Nat Prod, 2011).

System: RAW264.7
Test: Antiinflammatory activity in mouse RAW264.7 cells assessed as inhibition of LPS-stimulated nitric oxide production
Assay type: functional, cell-based

IC50 [µM] | Compound
> 50 | CC(=O)O[C@H]1C[C@H]2C[C@@]3(CC(=O)[C@@H]4C(C)(C)[C@@H](OC(C)=O)C[C@H](O)[C@@]4(C)[C@H]13)C(=O)[C@]21CCC(=O)[C@H]2C[C@H](OC(C)=O)[C@@H]3[C@](C2)(C[C@H](O)[C@@H]2C(C)(C)[C@@H](OC(C)=O)C[C@H](O)[C@]23C)C(=O)O1 (relative stereo)
> 50 | CC(=O)O[C@H]1C[C@H]2C[C@@]3(C[C@H](O)[C@@H]4C(C)(C)[C@@H](OC(C)=O)C[C@H](O)[C@@]4(C)[C@H]13)C(=O)O[C@]1(CCC2=O)C(=O)[C@]23C[C@@H]1C[C@H](OC(C)=O)[C@H]2[C@@]1(C)[C@H]([C@@H](O)C3)C(C)(C)[C@@H](OC(C)=O)C[C@@H]1O (relative stereo)
> 50 | CC(=O)O[C@H]1C[C@H]2C[C@@]3(C[C@H](O)[C@@H]4C(C)(C)[C@@H](OC(C)=O)C[C@H](O)[C@@]4(C)[C@H]13)C(=O)[C@]21CCC2=C(O1)[C@]13C[C@@H]2C[C@H](OC(C)=O)[C@H]1[C@@]1(C)[C@H]([C@@H](O)C3)C(C)(C)[C@@H](OC(C)=O)C[C@@H]1O (relative stereo)
> 50 | CC(=O)O[C@H]1C[C@H]2C[C@@]3(CC(=O)[C@@H]4C(C)(C)[C@@H](OC(C)=O)C[C@H](O)[C@@]4(C)[C@H]13)C(=O)O[C@]1(CCC2=O)C(=O)[C@]23C[C@@H]1C[C@H](OC(C)=O)[C@H]2[C@@]1(C)[C@H]([C@@H](O)C3)C(C)(C)[C@@H](OC(C)=O)C[C@@H]1O (relative stereo)
> 50 | CC(=O)O[C@H]1C[C@H]2C[C@@]3(C[C@H](O)[C@@H]4C(C)(C)[C@@H](OC(C)=O)C[C@H](O)[C@@]4(C)[C@H]13)C(=O)[C@]2(O)CC[C@@]1(O)C(=O)[C@]23C[C@@H]1C[C@H](O)[C@H]2[C@]1(C)[C@@H](OC(C)=O)C[C@H](OC(C)=O)C(C)(C)[C@H]1[C@@H](O)C3 (relative stereo)

Compound | IC50 [µM]
N=C(N)NN [PIMAGEDINE] | 27.5
